The text below walks through data of patent publication EP0381913A1, “Benzohydroxamic-acid derivatives” (SANDOZ AG, priority 1988, dated 1990).

The test system of this test is weeds. Briefly: greenhouse tests after either or both pre- and post-emergence application. In kind it is in vivo. The following applies: application rate corresponding to 0.25 kg/ha.

Description: In pre-emergence testing, small plastic greenhouse pots filled with dry soil are seeded with the various weed seeds. Twenty-four hours or less after the seeding, the pots are sprayed with water until the soil is wet and the test compounds formulated as aqueous emulsions of acetone solutions containing emulsifiers are sprayed at the indicated concentrations emulsifiers are sprayed on the surface of the soil. After spraying, the soil containers are placed in the greenhouse and provided with supplementary heat as required and daily or more frequent watering. The plants are maintained under these conditions for a period of from 14 to 21 days, at which time the conditions of the plants and the degree of injury to the plants is rated.
After spraying, the plants are placed in a greenhouse and watered daily or more frequently. Water is not applied to the foliage of the treated plants. The severity of the injury is determined 21 days after treatment and is rated.

With `COC(=O)CON(C(C)=O)C(=O)c1c(Cl)ccc(Cl)c1OC` [Compound 1.12, Methyl N-acetyl-N-(3,6-dichloro-2methoxy)benzoylaminooxyacetate], the control of weeds result is “substantial control of weeds”.
